In ChEMBL document CHEMBL5465560, “Selectivity Literature for EUbOPEN Chemogenomic Library” (2024):
Residue numbers refer to the chain shown, from its start.

Tests used:
[1] = biological target: Receptor-type tyrosine-protein kinase FLT3 (Homo sapiens) (UniProt P36888); assay: (§1) Selectivity interaction (KinomeScan (DiscoverX)) EUB0000595a FLT3; details: at 10 µM
[2] = system: T1, Receptor-type tyrosine-protein kinase FLT3 (Homo sapiens), P36888 [K663Q]; assay: as §1; details: at 10 µM
T1 sequence (whole entry): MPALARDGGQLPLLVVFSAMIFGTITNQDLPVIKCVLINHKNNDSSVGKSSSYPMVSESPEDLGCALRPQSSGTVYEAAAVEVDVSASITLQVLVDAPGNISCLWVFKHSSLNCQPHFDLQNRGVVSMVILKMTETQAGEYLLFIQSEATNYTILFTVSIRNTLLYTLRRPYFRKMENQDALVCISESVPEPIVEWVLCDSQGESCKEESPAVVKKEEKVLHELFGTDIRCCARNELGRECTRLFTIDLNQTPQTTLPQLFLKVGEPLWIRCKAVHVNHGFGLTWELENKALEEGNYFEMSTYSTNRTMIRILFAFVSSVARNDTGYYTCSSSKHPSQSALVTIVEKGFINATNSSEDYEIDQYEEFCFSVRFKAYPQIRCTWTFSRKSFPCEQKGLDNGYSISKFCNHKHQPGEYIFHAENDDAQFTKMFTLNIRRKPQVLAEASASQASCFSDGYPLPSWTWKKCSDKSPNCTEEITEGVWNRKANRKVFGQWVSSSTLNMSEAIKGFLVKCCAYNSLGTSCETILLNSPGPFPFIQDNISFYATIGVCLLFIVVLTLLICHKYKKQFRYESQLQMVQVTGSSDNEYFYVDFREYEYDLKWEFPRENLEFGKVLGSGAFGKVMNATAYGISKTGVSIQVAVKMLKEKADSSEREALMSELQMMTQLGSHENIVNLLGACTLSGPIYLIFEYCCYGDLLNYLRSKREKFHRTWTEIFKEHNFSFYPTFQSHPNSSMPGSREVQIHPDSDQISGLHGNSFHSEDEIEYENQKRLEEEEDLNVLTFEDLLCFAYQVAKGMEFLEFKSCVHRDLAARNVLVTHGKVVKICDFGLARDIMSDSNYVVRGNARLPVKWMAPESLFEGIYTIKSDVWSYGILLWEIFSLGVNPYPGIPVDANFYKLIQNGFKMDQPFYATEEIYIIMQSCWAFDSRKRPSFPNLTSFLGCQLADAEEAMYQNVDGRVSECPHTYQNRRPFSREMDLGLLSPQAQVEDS

[3] = system: T2, Receptor-type tyrosine-protein kinase FLT3 (Homo sapiens), P36888 [R834Q]; assay: as §1; details: at 10 µM
T2 sequence (whole entry): T1 sequence (whole entry) with Q663K, R834Q

[4] = system: Receptor-type tyrosine-protein kinase FLT3 (Homo sapiens), P36888 [UNDEFINED MUTATION]; assay: as §1; details: at 10 µM
[5] = biological target: Serine/threonine-protein kinase 38-like (Homo sapiens) (UniProt Q9Y2H1); assay: Selectivity interaction (KinomeScan (DiscoverX)) EUB0000595a STK38L; details: at 10 µM
Sequence of Serine/threonine-protein kinase 38-like (Homo sapiens) (Q9Y2H1 2-464 limits assumed): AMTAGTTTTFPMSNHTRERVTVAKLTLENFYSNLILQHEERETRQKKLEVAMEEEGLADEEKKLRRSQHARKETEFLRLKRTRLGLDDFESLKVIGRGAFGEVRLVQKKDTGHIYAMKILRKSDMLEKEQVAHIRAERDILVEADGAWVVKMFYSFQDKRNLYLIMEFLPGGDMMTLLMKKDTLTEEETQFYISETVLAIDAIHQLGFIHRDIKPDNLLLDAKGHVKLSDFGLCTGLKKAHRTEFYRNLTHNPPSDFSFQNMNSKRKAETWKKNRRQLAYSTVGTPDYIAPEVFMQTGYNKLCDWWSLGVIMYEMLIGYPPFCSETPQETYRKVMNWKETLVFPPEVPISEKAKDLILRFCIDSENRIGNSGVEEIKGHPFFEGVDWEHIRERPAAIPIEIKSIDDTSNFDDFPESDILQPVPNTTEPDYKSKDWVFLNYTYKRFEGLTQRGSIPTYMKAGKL

[6] = biological target: Bromodomain-containing protein 4 (Homo sapiens, UniProt O60885); assay: Selectivity interaction (Bromodomain panel (DSF asssay)) EUB0000270b BRD4
[7] = biological target: T3, Megakaryocyte-associated tyrosine-protein kinase (Homo sapiens) (UniProt P42679); assay: Selectivity interaction (KinomeScan (DiscoverX)) EUB0000092b MATK; details: at 10 µM
T3 sequence (whole entry): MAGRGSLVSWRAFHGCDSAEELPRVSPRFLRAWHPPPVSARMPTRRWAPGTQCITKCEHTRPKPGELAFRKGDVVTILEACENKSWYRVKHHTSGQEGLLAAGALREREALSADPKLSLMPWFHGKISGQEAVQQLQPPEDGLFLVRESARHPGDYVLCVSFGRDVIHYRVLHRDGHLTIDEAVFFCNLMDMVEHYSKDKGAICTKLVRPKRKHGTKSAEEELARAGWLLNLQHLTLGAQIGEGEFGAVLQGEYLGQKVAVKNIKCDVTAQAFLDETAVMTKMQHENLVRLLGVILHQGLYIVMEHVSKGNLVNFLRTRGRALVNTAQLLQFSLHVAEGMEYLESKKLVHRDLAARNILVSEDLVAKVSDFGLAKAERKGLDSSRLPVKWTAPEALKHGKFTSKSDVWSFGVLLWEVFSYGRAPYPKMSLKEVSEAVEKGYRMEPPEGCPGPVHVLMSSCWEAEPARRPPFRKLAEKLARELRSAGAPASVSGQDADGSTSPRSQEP

## COCC(=O)NC/C=C/c1ccc2ncnc(Nc3ccc(Oc4ccc(C)nc4)c(C)c3)c2c1 [CP-724714]
[1]
  % of control: 100%
[2]
  % of control: 79%
[3]
  % of control: 100%
[4]
  % of control: 87%
[5]
  % of control: 100%

## Cc1cc(CN)cc(C)c1-c1ncn(C)c1-c1cncn1C
[6]
  dTM: -1.68 K

## CCC(=O)N1CCN(c2ccc(-n3c(=O)ccc4cnc5ccc(-c6cnc7ccccc7c6)cc5c43)cc2C(F)(F)F)CC1
[7]
  % of control: 97%
